Reference: patent US9988400B2 (Genentech, Inc., priority 2013, dated 2018)

Target: T1, HEK cells stably transfected with tetracycline inducible hNR1 and hNR2A (Homo sapiens, UniProt Q05586+Q12879)
T1 construct: expressed in transfected cells; host or cells: HEK cells, stably transfected, tetracycline/doxycycline inducible
Assay: Assay 1: Cell-Based Assay, cytosolic calcium response to positive allosteric modulators (with 30 μM glycine and 300 nM L-glutamate, EC30)
Settings: Table 2; for EC50: cytosolic calcium response, with 30 μM glycine and 300 nM L-glutamate (EC30), — = no plateau was reached; for Max %: responses scaled relative to 100 μM L-glutamate maximal response (100%) and 0 μM L-glutamate (0%)
How it was run: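 Cells induced 24 h with 7.5 μg mL^−1 doxycycline plus 500 μM (+)-ketamine, loaded 60 min at 37 °C with calcium dye in Mg-free HBSS (1.8 mM Ca, probenecid, 10 μM (+)-ketamine, pH 7.15). Peak RFU over 5 min after compound addition, scaled to 100 μM L-glutamate (100%) and 0 μM (0%); four-parameter Hill fit for EC50, max % if no plateau.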

T1 sequence (Q12879 23-1464, other chains not shown): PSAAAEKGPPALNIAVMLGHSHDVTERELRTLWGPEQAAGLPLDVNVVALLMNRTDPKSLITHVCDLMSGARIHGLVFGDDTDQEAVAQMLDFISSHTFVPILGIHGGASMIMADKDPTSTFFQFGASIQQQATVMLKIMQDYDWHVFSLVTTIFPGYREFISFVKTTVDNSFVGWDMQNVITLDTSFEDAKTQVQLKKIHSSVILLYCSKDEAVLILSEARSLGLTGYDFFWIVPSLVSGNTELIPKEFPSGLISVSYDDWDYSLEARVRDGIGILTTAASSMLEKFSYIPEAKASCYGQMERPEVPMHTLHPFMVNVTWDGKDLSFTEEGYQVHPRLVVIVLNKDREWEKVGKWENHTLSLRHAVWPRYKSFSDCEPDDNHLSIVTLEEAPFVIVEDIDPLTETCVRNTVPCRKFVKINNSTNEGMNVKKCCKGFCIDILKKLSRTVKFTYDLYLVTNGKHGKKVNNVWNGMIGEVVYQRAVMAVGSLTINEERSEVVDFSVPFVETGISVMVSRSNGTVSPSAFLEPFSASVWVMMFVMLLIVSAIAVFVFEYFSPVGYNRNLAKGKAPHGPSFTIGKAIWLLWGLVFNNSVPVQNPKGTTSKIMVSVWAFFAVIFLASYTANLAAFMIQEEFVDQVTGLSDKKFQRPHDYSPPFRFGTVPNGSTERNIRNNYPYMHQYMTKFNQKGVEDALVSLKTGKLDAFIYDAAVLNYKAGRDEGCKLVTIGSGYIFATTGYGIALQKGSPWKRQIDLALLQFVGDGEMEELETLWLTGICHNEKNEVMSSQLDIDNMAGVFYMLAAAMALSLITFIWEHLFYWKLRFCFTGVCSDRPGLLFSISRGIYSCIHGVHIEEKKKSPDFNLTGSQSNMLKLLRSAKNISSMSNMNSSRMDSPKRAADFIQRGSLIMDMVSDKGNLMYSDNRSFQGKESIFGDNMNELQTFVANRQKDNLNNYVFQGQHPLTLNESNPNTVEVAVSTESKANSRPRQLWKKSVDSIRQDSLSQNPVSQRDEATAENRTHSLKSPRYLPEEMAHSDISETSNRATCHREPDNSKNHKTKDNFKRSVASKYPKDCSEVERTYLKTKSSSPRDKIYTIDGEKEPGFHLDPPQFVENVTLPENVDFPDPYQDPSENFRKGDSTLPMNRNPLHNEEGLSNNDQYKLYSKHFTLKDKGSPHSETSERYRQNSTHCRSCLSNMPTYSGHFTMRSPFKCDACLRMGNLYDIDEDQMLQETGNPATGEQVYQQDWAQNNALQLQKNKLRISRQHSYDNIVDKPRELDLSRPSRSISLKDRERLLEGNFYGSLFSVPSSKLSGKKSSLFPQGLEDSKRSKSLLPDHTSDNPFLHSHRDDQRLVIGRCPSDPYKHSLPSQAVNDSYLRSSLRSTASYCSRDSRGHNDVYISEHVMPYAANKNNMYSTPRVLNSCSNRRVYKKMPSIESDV

Row | Structure (SMILES) | EC50 | Max %
1 | CCN(Cc1cc(=O)n2c(-c3ccncc3)c(C)sc2n1)c1ccc(F)cc1 [Example 5.32, 7-[(N-ethyl-4-fluoro-anilino)methyl]-2-methyl-3-(4-pyridyl)thiazolo[3,2-a]pyrimidin-5-one] | 4.3 µM | 123%
2 | CCN(Cc1cc(=O)n2c(-c3cnn(C)c3)c(C)sc2n1)c1ccc(F)cc1 [Example 5.33, 7-[(N-ethyl-4-fluoro-anilino)methyl]-2-methyl-3-(1-methylpyrazol-4-yl)thiazolo[3,2-a]pyrimidin-5-one] | 4.2 µM | 120%
3 | CCN(Cc1cc(=O)n2c(-c3cn[nH]c3)c(C)sc2n1)c1ccc(F)cc1 [Example 5.34, 7-[(N-ethyl-4-fluoro-anilino)methyl]-2-methyl-3-(1H-pyrazol-4-yl)thiazolo[3,2-a]pyrimidin-5-one] | 2.8 µM | 118%
4 | CCN(Cc1cc(=O)n2c(-c3cncc(C#N)c3)c(C)sc2n1)c1ccc(F)cc1 [Example 5.35, 5-[7-[(N-ethyl-4-fluoro-anilino)methyl]-2-methyl-5-oxo-thiazolo[3,2-a]pyrimidin-3-yl]pyridine-3-carbonitrile] | 2.7 µM | 136%
5 | CCN(Cc1cc(=O)n2c(-c3cncc(C(F)(F)F)c3)c(C)sc2n1)c1ccc(F)cc1 [Example 5.36, 7-[(N-ethyl-4-fluoro-anilino)methyl]-2-methyl-3-[5-(trifluoromethyl)-3-pyridyl]thiazolo[3,2-a]pyrimidin-5-one] | – | 61.3%
6 | CCN(Cc1cc(=O)n2c(-c3ncco3)c(C)sc2n1)c1ccc(F)cc1 [Example 5.37, 7-[(N-ethyl-4-fluoro-anilino)methyl]-2-methyl-3-oxazol-2-yl-thiazolo[3,2-a]pyrimidin-5-one] | 0.515 µM | 152%
7 | CCN(Cc1cc(=O)n2c(C(F)(F)F)c(C)sc2n1)c1ccc(F)cc1 [Example 5.38, 7-((ethyl(4-fluorophenyl)amino)methyl)-2-methyl-3-(trifluoromethyl)-5H-thiazolo[3,2-a]pyrimidin-5-one] | 1.1 µM | 147%
8 | CCc1c(C)sc2nc(CN(CC)c3ccc(F)cc3)cc(=O)n12 [Example 5.40, 3-ethyl-7-((ethyl(4-fluorophenyl)amino)methyl)-2-methyl-5H-thiazolo[3,2-a]pyrimidin-5-one] | 1.9 µM | 149%
9 | CCCc1c(C)sc2nc(CN(CC)c3ccc(F)cc3)cc(=O)n12 [Example 5.41, 7-((ethyl(4-fluorophenyl)amino)methyl)-2-methyl-3-propyl-5H-thiazolo[3,2-a]pyrimidin-5-one] | 2 µM | 125%
10 | CCN(Cc1cc(=O)n2c(-c3ccoc3)c(C)sc2n1)c1ccc(F)cc1 [Example 5.44, 7-((ethyl(4-fluorophenyl)amino)methyl)-3-(furan-3-yl)-2-methyl-5H-thiazolo[3,2-a]pyrimidin-5-one] | 1.1 µM | 158%
11 | CCN(Cc1cc(=O)n2c(-c3ccco3)c(C)sc2n1)c1ccc(F)cc1 [Example 5.45, 7-((ethyl(4-fluorophenyl)amino)methyl)-3-(furan-2-yl)-2-methyl-5H-thiazolo[3,2-a]pyrimidin-5-one] | 0.214 µM | 139%
12 | Cc1sc2nc(CN3c4ccc(F)cc4CC3C)cc(=O)n2c1-c1ccco1 (centres unmarked) [Example 5.46, 7-((5-fluoro-2-methylindolin-1-yl)methyl)-3-(furan-2-yl)-2-methyl-5H-thiazolo[3,2-a]pyrimidin-5-one] | 3.8 µM | 155%
13 | CCN(Cc1cc(=O)n2c(-c3ccsc3)c(C)sc2n1)c1ccc(F)cc1 [Example 5.47, 7-((ethyl(4-fluorophenyl)amino)methyl)-2-methyl-3-(thiophen-3-yl)-5H-thiazolo[3,2-a]pyrimidin-5-one] | 0.976 µM | 151%
14 | Cc1sc2nc(CN3c4ccc(F)cc4CC3C)cc(=O)n2c1-c1cncnc1 (centres unmarked) [Example 5.48, 7-((5-fluoro-2-methylindolin-1-yl)methyl)-2-methyl-3-(pyrimidin-5-yl)-5H-thiazolo[3,2-a]pyrimidin-5-one] | 6.2 µM | 136%
15 | CCN(Cc1cc(=O)n2c(-c3nc(C)cs3)c(C)sc2n1)c1ccc(F)cc1 [Example 5.49, 7-((ethyl(4-fluorophenyl)amino)methyl)-2-methyl-3-(4-methylthiazol-2-yl)-5H-thiazolo[3,2-a]pyrimidin-5-one] | 12.9 µM | 127%
16 | CCN(Cc1cc(=O)n2c(-c3ccc(=O)[nH]c3)c(C)sc2n1)c1ccc(F)cc1 [Example 5.50, 7-((ethyl(4-fluorophenyl)amino)methyl)-2-methyl-3-(6-oxo-1,6-dihydropyridin-3-yl)-5H-thiazolo[3,2-a]pyrimidin-5-one] | – | 96.8%
17 | CCN(Cc1cc(=O)n2c(-c3ccc(N)nc3)c(C)sc2n1)c1ccc(F)cc1 [Example 5.51, 3-(6-aminopyridin-3-yl)-7-((ethyl(4-fluorophenyl)amino)methyl)-2-methyl-5H-thiazolo[3,2-a]pyrimidin-3-one] | 40.7 µM | 80.3%
18 | CC#Cc1c(C)sc2nc(CN(CC)c3ccc(F)cc3)cc(=O)n12 [Example 5.52] | 1.6 µM | 58%
19 | C=Cc1c(C)sc2nc(CN(CC)c3ccc(F)cc3)cc(=O)n12 [Example 5.53, 7-((ethyl(4-fluorophenyl)amino)methyl)-2-methyl-3-vinyl-5H-thiazolo[3,2-a]pyrimidin-5-one] | 1.3 µM | 153%
20 | CCN(Cc1cc(=O)n2c(Br)c(C3CC3)sc2n1)c1ccc(F)cc1 [Example 5.54, 3-bromo-2-cyclopropyl-7-[(N-ethyl-4-fluoro-anilino)methyl]thiazolo[3,2-a]pyrimidin-5-one] | 51.5 µM | 129%
21 | CCN(Cc1cc(=O)n2c(-c3cc(F)cc(F)c3)c(C)sc2n1)c1ccc(F)cc1 [Example 5.55, 3-(3,5-difluorophenyl)-7-[(N-ethyl-4-fluoro-anilino)methyl]-2-methyl-thiazolo[3,2-a]pyrimidin-5-one] | 4.7 µM | 111%
22 | CCN(Cc1cc(=O)n2c(-c3ccn(C)n3)c(C)sc2n1)c1ccc(F)cc1 [Example 5.56, 7-[(N-ethyl-4-fluoro-anilino)methyl]-2-methyl-3-(1-methylpyrazol-3-yl)thiazolo[3,2-a]pyrimidin-5-one] | – | 110%
23 | CCN(Cc1cc(=O)n2c(-c3ccnc(N)c3)c(C)sc2n1)c1ccc(F)cc1 [Example 5.57, 3-(2-amino-4-pyridyl)-7-[(N-ethyl-4-fluoro-anilino)methyl]-2-methyl-thiazolo[3,2-a]pyrimidin-5-one] | 6.4 µM | 120%
24 | CCN(Cc1cc(=O)n2c(-c3cncc(OC)c3)c(C)sc2n1)c1ccc(F)cc1 [Example 5.58, 7-[(N-ethyl-4-fluoro-anilino)methyl]-3-(5-methoxy-3-pyridyl)-2-methyl-thiazolo[3,2-a]pyrimidin-5-one] | 5.1 µM | 120%
25 | CCN(Cc1cc(=O)n2c(N3CCOCC3)c(C)sc2n1)c1ccc(F)cc1 [Example 6.1, 7-((ethyl(4-fluorophenyl)amino)methyl)-2-methyl-3-morpholino-5H-thiazolo[3,2-a]pyrimidin-5-one] | 10 µM | 123%
